This note sets out measurements from patent US8791132B2, “Compounds and methods for treatment of hypertension” (Medivation Technologies, Inc., priority 2011, dated 2014).

Molecules are shown by their SMILES.

Test [1] has as its target T1, human recombinant adrenergic α2B receptor (Homo sapiens, UniProt P18089).
T1 construct: expressed in transfected cells; host or cells: CHO-K1
T1 sequence (P18089 1-450): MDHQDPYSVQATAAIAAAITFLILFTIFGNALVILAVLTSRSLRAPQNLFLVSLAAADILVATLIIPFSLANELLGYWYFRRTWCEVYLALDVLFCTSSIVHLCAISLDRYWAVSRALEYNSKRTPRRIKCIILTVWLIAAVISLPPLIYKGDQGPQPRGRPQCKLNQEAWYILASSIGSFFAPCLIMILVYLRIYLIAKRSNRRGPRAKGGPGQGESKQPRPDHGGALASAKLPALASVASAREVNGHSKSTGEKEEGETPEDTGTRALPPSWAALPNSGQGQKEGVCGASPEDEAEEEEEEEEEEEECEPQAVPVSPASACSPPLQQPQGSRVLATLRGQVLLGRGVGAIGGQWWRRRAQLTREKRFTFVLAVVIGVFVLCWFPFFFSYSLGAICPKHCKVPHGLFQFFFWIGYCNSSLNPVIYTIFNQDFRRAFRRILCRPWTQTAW
Put plainly: Radioligand binding, adrenergic α2B ([3H]Rauwolscine). Particulars: compound at 0.03 μM, [3H]Rauwolscine, repeat assays, each datapoint shown; for Percentage inhibition of ligand binding, Adrenergic α2B: 0.03 µM. The essentials: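 Values are percent inhibition of specific radioligand binding. The receptor, expressed in CHO-K1 cells, was exposed to 2.5 nM [3H]Rauwolscine at 25° C for 60 min, with 10 μM Prazosin marking non-specific binding.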

For test [2], the target named is T2, human recombinant adrenergic α2A receptor (Homo sapiens, UniProt P08913).
T2 construct: expressed in transfected cells; host or cells: insect Sf9 cells
T2 sequence (P08913 1-465): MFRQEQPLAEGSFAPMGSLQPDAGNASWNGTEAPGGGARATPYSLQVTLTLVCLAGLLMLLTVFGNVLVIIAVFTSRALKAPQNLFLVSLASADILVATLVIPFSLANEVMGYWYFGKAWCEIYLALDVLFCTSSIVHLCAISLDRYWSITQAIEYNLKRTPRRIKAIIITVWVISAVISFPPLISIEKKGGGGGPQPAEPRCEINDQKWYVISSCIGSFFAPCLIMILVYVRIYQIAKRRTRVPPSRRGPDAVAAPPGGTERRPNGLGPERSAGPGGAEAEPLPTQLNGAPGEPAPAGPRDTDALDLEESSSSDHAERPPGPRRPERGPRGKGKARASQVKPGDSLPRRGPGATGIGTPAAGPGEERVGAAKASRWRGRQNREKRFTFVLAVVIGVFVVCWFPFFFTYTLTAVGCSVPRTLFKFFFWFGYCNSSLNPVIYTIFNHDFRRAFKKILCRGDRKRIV
The experiment in a line: Radioligand binding, adrenergic α2A ([3H]MK-912). The conditions noted are these: compound at 0.1 μM; [3H]MK-912; repeat assays, each datapoint shown; 0.1 µM. The essentials:
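In 50 mM Tris-HCl (pH 7.4) containing 12.5 mM MgCl2 and 2 mM EDTA, Sf9-expressed receptor was exposed to test compound plus 1 nM [3H]MK-912 at 25 °C for 60 min. Specific binding, corrected using 10 μM WB-4101, was quantified by filtration and counting and expressed as percent inhibition.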

Test [3] deals with T3, rat adrenergic α1B receptor (Rattus norvegicus, UniProt P15823).
T3 construct: rat adrenergic α1B receptor obtained from Wistar Rat liver; from tissue; host or cells: Wistar rat liver
T3 sequence (P15823 1-515): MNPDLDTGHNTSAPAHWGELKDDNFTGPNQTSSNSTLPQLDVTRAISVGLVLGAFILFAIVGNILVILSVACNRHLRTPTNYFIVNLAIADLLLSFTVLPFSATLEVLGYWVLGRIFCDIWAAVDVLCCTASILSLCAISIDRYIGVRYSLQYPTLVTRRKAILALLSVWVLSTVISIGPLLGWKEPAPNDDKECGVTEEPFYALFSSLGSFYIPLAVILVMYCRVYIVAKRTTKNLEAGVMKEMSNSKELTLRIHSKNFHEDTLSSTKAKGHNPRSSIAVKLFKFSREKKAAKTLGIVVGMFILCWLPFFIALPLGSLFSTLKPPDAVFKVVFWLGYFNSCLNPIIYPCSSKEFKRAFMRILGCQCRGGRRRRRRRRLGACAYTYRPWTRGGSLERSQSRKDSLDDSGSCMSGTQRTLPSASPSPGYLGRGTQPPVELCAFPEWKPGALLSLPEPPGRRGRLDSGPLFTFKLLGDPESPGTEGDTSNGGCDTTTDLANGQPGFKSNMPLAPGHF
Put plainly: Radioligand binding, adrenergic α1B ([3H]Prazosin). Particulars: compound at 0.1 μM, [3H]Prazosin, repeat assays, each datapoint shown; for Percentage inhibition of ligand binding, Adrenergic α1B: 0.1 µM; for inhibition at 0.1 µM: read-out: Percentage inhibition of ligand binding, Adrenergic α1B. The essentials: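 Filter binding with Wistar rat liver α1B preparation: test compound plus 0.25 nM [3H]prazosin, 1 h at 25° C in modified Tris-HCl buffer pH 7.4.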

On to `CN1CCc2c(n(CC(O)c3ccncc3)c3ccc(Cl)cc23)C1` (single isomer, unassigned) [41b], for which, in test [1], the “Percentage inhibition of ligand binding, Adrenergic α2B” value (“Percentage inhibition … Adrenergic α2B” below) was found to be 50%. Further, the “Percentage inhibition of ligand binding, Adrenergic α2A” value (from here on “Percentage inhibition … Adrenergic α2A”) in test [2] was 8%. In test [3], the “Percentage inhibition of ligand binding, Adrenergic α1B” value (“Percentage inhibition … Adrenergic α1B” for short) came to 50%.

Turning to `CC(O)(Cn1c2c(c3cc(Cl)ccc31)CNCC2)c1ccncn1` (single isomer, unassigned) [42a, 1-(8-chloro-1,2,3,4-tetrahydro-pyrido[4,3-b]indol-5-yl)-2-pyrimidin-4-yl-propan-2-ol], in test [1] (read-out: Percentage inhibition of ligand binding, Adrenergic α2B), the inhibition at 0.03 µM came out at 29%. Also, the “Percentage inhibition … Adrenergic α2A” value in test [2] worked out at 3%. In addition, the inhibition at 0.1 µM in test [3] came out at 15%.

Take `CC(O)(Cn1c2c(c3cc(Cl)ccc31)CNCC2)c1ccncn1` (single isomer, unassigned) [42b, 1-(8-chloro-1,2,3,4-tetrahydro-pyrido[4,3-b]indol-5-yl)-2-pyrimidin-4-yl-propan-2-ol]: the “Percentage inhibition … Adrenergic α2B” value in test [1] was 34%. For the same compound, the “Percentage inhibition … Adrenergic α2A” value in test [2] is 12%. Moreover, the “Percentage inhibition … Adrenergic α1B” value in test [3] is listed as 19%.

As for `Cc1ccc2c(c1)c1c(n2CC(O)c2cccnc2)CN(C)CC1` (single isomer, unassigned) [43a, 2-(2,6-dimethyl-1,2,3,4-tetrahydro-β-carbolin-9-yl)-1-pyridin-3-yl-ethanol], the “Percentage inhibition … Adrenergic α2B” value in test [1] amounted to 51%. Besides, the “Percentage inhibition … Adrenergic α2A” value in test [2] is given as 9%. Further, in test [3], the “Percentage inhibition … Adrenergic α1B” value is 33%.

For `Cc1ccc2c(c1)c1c(n2CC(O)c2cccnc2)CN(C)CC1` (single isomer, unassigned) [43b, 2-(2,6-dimethyl-1,2,3,4-tetrahydro-β-carbolin-9-yl)-1-pyridin-3-yl-ethanol], the “Percentage inhibition … Adrenergic α2B” value in test [1] is listed as 27%. Besides, in test [2], the “Percentage inhibition … Adrenergic α2A” value is reported as 13%. Besides, the “Percentage inhibition … Adrenergic α1B” value in test [3] stood at 46%.

Take `COc1cccc2c3c(n(CC(O)c4ccncc4)c12)CCN(C)C3` (single isomer, unassigned) [44a, 2-(6-methoxy-2-methyl-3,4-dihydro-1H-pyrido[4,3-b]indol-5(2H)-yl)-1-(pyridin-4-yl)ethanol]: the “Percentage inhibition … Adrenergic α2B” value in test [1] was found to be 33%. In addition, the “Percentage inhibition … Adrenergic α2A” value in test [2] is recorded as 11%. Further, the “Percentage inhibition … Adrenergic α1B” value in test [3] came out at 12%.

For `COc1cccc2c3c(n(CC(O)c4ccncc4)c12)CCN(C)C3` (single isomer, unassigned) [44b, 2-(6-methoxy-2-methyl-3,4-dihydro-1H-pyrido[4,3-b]indol-5(2H)-yl)-1-(pyridin-4-yl)ethanol], the “Percentage inhibition … Adrenergic α2B” value in test [1] turned out to be 75%. Also, the “Percentage inhibition … Adrenergic α2A” value in test [2] is given as 1%. The “Percentage inhibition … Adrenergic α1B” value in test [3] is 18%.

`CN1CCc2c(c3cccc(Cl)c3n2CC(O)c2ccncc2)C1` (single isomer, unassigned) [45a]: the “Percentage inhibition … Adrenergic α2B” value in test [1] was 54%. Moreover, in test [2], the “Percentage inhibition … Adrenergic α2A” value is reported as −4%. Also, in test [3], the inhibition at 0.1 µM was 23%.

For `CN1CCc2c(c3cccc(Cl)c3n2CC(O)c2ccncc2)C1` (single isomer, unassigned) [45b], the “Percentage inhibition … Adrenergic α2B” value in test [1] is 96%. Moreover, in test [2], the “Percentage inhibition … Adrenergic α2A” value is recorded as 16%. Also, in test [3], the “Percentage inhibition … Adrenergic α1B” value came out at 24%.

With `Cc1ccc2c(c1)c1c(n2CC(O)c2ccncc2)CCN2CCCCC12` (single isomer, unassigned) [47a], the “Percentage inhibition … Adrenergic α2B” value in test [1] came out at 40%. Moreover, the “Percentage inhibition … Adrenergic α2A” value in test [2] is 10%. Moreover, the “Percentage inhibition … Adrenergic α1B” value in test [3] worked out at 58%.

In the case of `Cc1ccc2c(c1)c1c(n2CC(O)c2ccncc2)CCN2CCCCC12` (single isomer, unassigned) [47b], the “Percentage inhibition … Adrenergic α2B” value in test [1] was 119%. For the same compound, in test [2], the “Percentage inhibition … Adrenergic α2A” value was 41%. In addition, the “Percentage inhibition … Adrenergic α1B” value in test [3] was determined as 70%.

As usually defined, the inhibition is the relative decrease from the control value, in per cent.
